Patent US20120028288A1, “Method for Measuring Cell Motility and System Therefor” (priority 2005, published 2012)
“Also recorded” adds a separate entry of the source.

B1: CCL5: Recombinant Human RANTES (CCL5; Regulation upon Activation Normal T cell Express Sequence), purchased from PeproTech (protein, UniProt P13501 24-91, looked up)
C-C motif chemokine 5: SPYSSDTTPCCFAYIARPLPRAHIKEYFYTSGKCSNPAVVFVTRKNRQVCANPEKKWVREYINSLEMS
B2: CCL3: Recombinant Human MIP-1 alpha (CCL3; Macrophage Inflammatory Protein-1 alpha), purchased from PeproTech (protein, UniProt P10147 24-92, looked up)
C-C motif chemokine 3: SLAADTPTACCFSYTSRQIPQNFIADYFETSSQCSKPGVIFLTKRSRQVCADPSEEWVQKYVSDLELSA

Key:
[1] = test system: eosinophils from normal, allergy/atopy and asthma patient donors; assay: Chemotaxis analysis of eosinophils of allergy/atopy and asthma patients compared with normal subjects (TAXIScan; VD plot, CRT and CLT analysis)
[2] = test system: eosinophils obtained from blood samples of normal subjects; assay: Eosinophil chemotactic experiment toward various chemotactic factors (time-lapse tracking; VD plot, CRT and CLT analysis); conditions: for rate of cells having a high specific motility in the concentration gradient direction in the VD plot / Chemotaxis Lifetime (CLT) / migration duration time, in words / Chemotactic Response Time (CRT) / time course of migration start, in words: normal subject eosinophils; for rate of cells having a high specific motility in the concentration gradient direction in the VD plot: CCL3, CCL5 5 μM, CXCL12, fMLP, PGD2 1 μM, vs control without factor (N.C.); for Chemotaxis Lifetime (CLT) / migration duration time, in words / Chemotactic Response Time (CRT) / time course of migration start, in words: concentration gradient of factor; for Chemotactic Response Time (CRT) / time course of migration start, in words: ACR viewed at 5 and 45 minutes
Description: Blood samples were obtained from patients and normal subjects, after a confirmation of informed consent. The blood samples were subjected to hemolytic reaction by water treatment and centrifugal separation, repeated twice, and thereafter a magnetic cell separation method was conducted so as to separate eosinophil therefrom. MACS (Miltenyi Biotec GmbH, Germany) was used for the magnetic cell separation, and the separation was performed by the negative selection method using anti-human CD3, CD14, CD16, and CD19 antibody-labeled paramagnetic microbeads. The magnetic cell separation method was conducted pursuant to the manual of Miltenyi Biotec GmbH. The cells obtained were washed with PBS, and thereafter suspended in RPMI-HEPES culture medium containing 1% FCS at the concentration of 5×10^6 cells/ml, and used for the subsequent experiment.
Structural setting of the system and the measuring method were carried out according to the aforementioned procedure.
In the measurement, the observation support unit of the system was filled up with RPMI-HEPES medium containing 1% FCS, and maintained at 37° C. to have the cells and the chemotactic factor being injected, and thereafter, the state of the cells was subjected to the time-lapse imaging. […] Imaging was performed at time-lapse intervals of one minute, and twelve samples at the maximum per one holder were subjected to the imaging in parallel.
The aforementioned program was used for the identification and tracking of the cell. […] With this software, when a user highlighted an area in the image as an analysis target, the cells in the area were identified and tracking was executed. Automatic cell tracking was performed according to the following procedure; a positional change in the time-lapse image was corrected, and then a position of the cell being the closest in the adjacent time-frame photo was sequentially designated and stored. Since an error might be included in the automatic cell tracking, the migratory pathway of the cell being obtained was appropriately corrected based on a visual judgment by a human. […] According to the obtained migratory pathway information of the cells, one by one, time-series data such as the position, velocity, and directionality of the cells was acquired. In order to avoid exerting an effect of artificial bias on the data, a third person, who was not informed of the details of the experiment, conducted the cell identification and tracking works by using the present software.
VD plot (Velocity-Direction plot) was obtained by calculating median values, as to the values of the time-series data of the velocity and directionality of individual cells, plotting the median value of velocity on the vertical axis and the median value of directionality on the horizontal axis. A gate was set on the graph surface, indicating an index of the cellular chemotaxis, and a rate of the cells included in the gate was obtained. Mann-Whitney U-test was employed for a difference test concerning the rate of the cells.
In the calculation of Chemotactic Response Time (CRT) and of Chemotaxis Lifetime (CLT) of the cell, an Exponential Moving Average (EMA) was calculated based on time-series data of the cell migration velocity, and the cellular chemotaxis was defined by the state where the value of EMA exceeded a certain threshold. In other words, CRT was a time period from start of the measurement until the time when the EMA firstly exceeded the threshold, and an elapsed time from the time when EMA firstly exceeded the threshold until it fell below the threshold was CLT.

Row | Molecule | rate of cells that continued migration for five minutes or more (CLT analysis), patients compared to normal subjects ([1]; allergy/atopy patients and asthma patients vs normal subjects) | cell motility from VD plot, asthma patients (III) compared to normal subject (I) ([1]; eosinophils of asthma patients, PGD2 or fMLP 1 μM gradient) | CRT analysis: difference between patient groups and normal subjects ([1]; groups I, II, III) | rate of cells having a high specific motility in the concentration gradient direction in the VD plot [2] | Chemotaxis Lifetime (CLT) / migration duration time, in words [2] | Chemotactic Response Time (CRT) / time course of migration start, in words [2] | share of eosinophils that migrated according to the CRT analysis ([2]; normal subjects)
1 | CSCC[C@H](NC=O)C(=O)N[C@@H](CC(C)C)C(=O)N[C@@H](Cc1ccccc1)C(=O)O [fMLP, N-formyl-methionyl-leucyl-phenylalanine] | not found a significant difference | significant difference | not a large difference | little difference from the control | most of the cells stopped migration within 15 minutes; also recorded: relatively shorter than the other factors | started moving gradually as time advanced | about half
2 | B1 | – | – | – | little difference from the control | long lifetime tendency | hardly started migration; also recorded: turned up gradually after lapse of approximately one hour | –
3 | B2 | – | – | – | high motility | short relative to CCL5 or CXCL12 | started moving gradually as time advanced | –
